Results published in article PMC9518255 (Journal of Enzyme Inhibition and Medicinal Chemistry, 2022).

How the values were obtained:
[1] = target: Keap1-Nrf2 PPI (Keap1 Kelch domain protein / FITC-9mer Nrf2 peptide amide) (Homo sapiens, UniProt Q14145); experiment: Fluorescence polarisation; assay type: binding; details: for inhibition at 50 µM: read-out: inhibitory rate against Keap1-Nrf2 PPI; for inhibitory activities against Keap1-Nrf2 PPI compared to compound K3: FP assay, 5 and 50 μM, R2 substituent varied
Sequence of Keap1-Nrf2 PPI (Keap1 Kelch domain protein / FITC-9mer Nrf2 peptide amide) (Q14145 321-609 limits assumed): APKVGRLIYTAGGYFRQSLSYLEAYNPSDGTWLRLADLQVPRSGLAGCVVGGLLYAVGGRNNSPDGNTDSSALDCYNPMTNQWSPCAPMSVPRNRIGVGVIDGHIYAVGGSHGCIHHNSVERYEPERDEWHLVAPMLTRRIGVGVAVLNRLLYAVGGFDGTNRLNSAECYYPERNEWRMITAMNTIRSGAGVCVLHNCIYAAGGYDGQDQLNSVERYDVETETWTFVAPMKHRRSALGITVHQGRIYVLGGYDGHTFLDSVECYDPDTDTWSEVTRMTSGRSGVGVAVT

[2] = Metabolic stability in human liver microsomes; assay type: in vitro ADME; details: pH 7.4

| Structure (SMILES) | IC50 [1] [µM] | inhibition at 50 µM [1] [%] | inhibitory activities against Keap1-Nrf2 PPI compared to compound K3 [1] | remaining at 0.5 h, 10 μM [2] [%] |
| --- | --- | --- | --- | --- |
| COc1ccc(S(=O)(=O)Nc2ccc(NS(=O)(=O)c3ccc(OC)cc3)cc2)cc1 [K3] | 36.3 | ~68 | – | – |
| COc1ccc(S(=O)(=O)Nc2ccc(NS(=O)(=O)c3ccccc3)cc2)cc1 [K10] | – | – | markedly decreased | – |
| COc1ccc(S(=O)(=O)Nc2ccc(NS(=O)(=O)c3ccc(C)cc3)cc2)cc1 [K11] | – | – | markedly decreased | – |
| COc1ccc(S(=O)(=O)Nc2ccc(NS(=O)(=O)c3ccc(-c4ccccc4)cc3)cc2)cc1 [K14] | – | – | markedly decreased | – |
| COc1ccc(S(=O)(=O)Nc2ccc(NS(=O)(=O)Cc3ccccc3)cc2)cc1 [K15] | – | – | markedly decreased | – |
| COc1ccc(S(=O)(=O)Nc2ccc(NS(=O)(=O)c3ccc4ccccc4c3)cc2)cc1 [K16] | – | – | markedly decreased | – |
| COc1ccc(S(=O)(=O)Nc2ccc(NS(=O)(=O)c3cccc4cccnc34)cc2)cc1 [K17] | – | – | markedly decreased | – |
| COc1ccc(S(=O)(=O)Nc2ccc(NS(=O)(=O)c3cccnc3)cc2)cc1 [K18] | ~31.5 | 72 | slightly higher | – |
| COc1ccc(S(=O)(=O)Nc2ccc(NS(=O)(=O)c3ccc(OC)cc3)c(CCC(=O)O)c2)cc1 [KP-1] | 0.74 | – | – | – |
| O=C(CCc1ccc(O)cc1)c1c(O)cc(O)cc1O [PHL, Phloretin, reference compound] | 8.67 | – | – | 10.3 |
